{
  "source": "PubChem BioAssay AID1259409",
  "about": "(Chemical Carcinogenesis Research Information System (CCRIS), 2018)",
  "origin": "cited, not measured here",
  "test_system": "rodent chemically induced tumor inhibition, incidence and multiplicity",
  "experiment": "CCRIS tumor inhibitor studies",
  "conditions": "for tumour outcome (control, treated, inhibition, significance): Promoter: NONE USED",
  "data": [
    {"smiles": "O=[Se](O)O", "values": [
      {"measurement": "tumour outcome (control, treated, inhibition, significance)", "setting": "Carcinogen: N,N-DIETHYLNITROSAMINE, 55-18-5, Dose [Inhibitor]: 0.1 MG 5/WK STARTING 10-15 D BEFORE CARCINOGEN TREATMENT AND CONTINUING FOR DURATION OF STUDY (STUDY DURATION: 26 WK), Route [Inhibitor]: INTRAPERITONEAL, Species: RAT, Strain/Sex: BDIV AND WISTAR/MALE, Target Tissue: Type of Lesion: LIVER: TUMOR, Dose [Carcinogen]: 100 MG/L IN DRINKING WATER DAILY FOR 5 MO", "value": "18/19 (95%), 14/17 (82%), 14%, not calculated"},
      {"measurement": "tumour outcome (control, treated, inhibition, significance)", "setting": "Carcinogen: N,N-DIETHYLNITROSAMINE, 55-18-5, Dose [Inhibitor]: 1 MG/L IN DRINKING WATER DAILY STARTING 10-15 D BEFORE CARCINOGEN TREATMENT AND CONTINUING FOR DURATION OF STUDY (STUDY, Route [Inhibitor]: ORAL, Species: RAT, Strain/Sex: BDIV AND WISTAR/MALE, Target Tissue: Type of Lesion: LIVER: TUMOR, Dose [Carcinogen]: 80 MG/KG BW IN 0.2 ML 0.9% SALINE 1/WK FOR 10 WK", "value": "17/20 (85%), 15/20 (75%), 12%, not calculated"},
      {"measurement": "tumour outcome (control, treated, inhibition, significance)", "setting": "Carcinogen: N,N-DIETHYLNITROSAMINE, 55-18-5, Dose [Inhibitor]: 5 MG/L IN DRINKING WATER DAILY STARTING 10-15 D BEFORE CARCINOGEN TREATMENT AND CONTINUING FOR DURATION OF STUDY (STUDY, Route [Inhibitor]: ORAL, Species: RAT, Strain/Sex: BDIV AND WISTAR/MALE, Target Tissue: Type of Lesion: LIVER: TUMOR, Dose [Carcinogen]: 80 MG/KG BW IN 0.2 ML 0.9% SALINE 1/WK FOR 10 WK", "value": "15/16 (94%), 17/18 (94%), 0%, not calculated"},
      {"measurement": "tumour outcome (control, treated, inhibition, significance)", "setting": "Carcinogen: N,N-DIETHYLNITROSAMINE, 55-18-5, Dose [Inhibitor]: 10 MG/L IN DRINKING WATER DAILY STARTING 10-15 D BEFORE CARCINOGEN TREATMENT AND CONTINUING FOR DURATION OF STUDY (STUDY, Route [Inhibitor]: ORAL, Species: RAT, Strain/Sex: BDIV AND WISTAR/MALE, Target Tissue: Type of Lesion: LIVER: TUMOR, Dose [Carcinogen]: 80 MG/KG BW IN 0.2 ML 0.9% SALINE 1/WK FOR 10 WK", "value": "15/16 (94%), 9/13 (69%), 27%, not calculated"},
      {"measurement": "tumour outcome (control, treated, inhibition, significance)", "setting": "Carcinogen: N,N-DIETHYLNITROSAMINE, 55-18-5, Dose [Inhibitor]: 10 MG/L IN DRINKING WATER DAILY STARTING 10-15 D BEFORE CARCINOGEN TREATMENT AND CONTINUING FOR DURATION OF STUDY (STUDY, Route [Inhibitor]: ORAL, Species: RAT, Strain/Sex: BDIV AND WISTAR/MALE, Target Tissue: Type of Lesion: LIVER: TUMOR, Dose [Carcinogen]: 100 MG/L IN DRINKING WATER DAILY FOR 5 MO", "value": "18/19 (95%), 15/16 (94%), 1%, not calculated"},
      {"measurement": "tumour outcome (control, treated, inhibition, significance)", "setting": "Carcinogen: N-METHYL-N'-NITRO-N-NITROSOGUANIDINE, 70-25-7, Dose [Inhibitor]: 10 MG/L IN DRINKING WATER DAILY STARTING 15 D BEFORE CARCINOGEN TREATMENT AND CONTINUING FOR DURATION OF STUDY (STUDY DU, Route [Inhibitor]: ORAL, Species: RAT, Strain/Sex: BDIV AND WISTAR/MALE, Target Tissue: Type of Lesion: STOMACH: TUMORS, Dose [Carcinogen]: 250 MG/KG BW PULSED DOSE IN 2 ML CORN OIL ONCE", "value": "18/25 (72%), 12/35 (75%), -4%, not calculated"},
      {"measurement": "outcome", "setting": "Carcinogen: N-METHYL-N-NITRO-N'-NITROSO-GUANIDINE [70-25-7], Dose [Inhibitor]: 0, 2, 4 MG/L FOR 1 WK PRIOR TO CARCINOGEN (STUDY DURATION: 43 WKS), Dose [Inhibitor]: 0, 2, 4 MG/L FOR 1 WK PRIOR TO CARCINOGEN (STUDY DURATION: 43 WKS), Route [Inhibitor]: DRINKING WATER, Species: RAT, Strain/Sex: WISTAR/MALE, Target Tissue: Type of Lesion: LEIOMYOMA, Dose [Carcinogen]: 20 MG/KG BW DAILY FOR 10 D", "value": "23%; 47%, -104%; 43%, -87%"},
      {"measurement": "tumour outcome (control, treated, inhibition, significance)", "setting": "Carcinogen: N-METHYL-N-NITROSOUREA, 684-9-35, Dose [Inhibitor]: 4 PPM IN DRINKING WATER DAILY FOR 10 MO STARTING SIMULTANEOUSLY WITH CARCINOGEN TREATMENT (STUDY DURATION: 10 MO), Route [Inhibitor]: ORAL, Species: RAT, Strain/Sex: WE/MALE, Target Tissue: Type of Lesion: BRAIN AND SPINAL CORD: NEOPLASM, Dose [Carcinogen]: 20 MG/KG BW ONCE EVERY 4 WK FOR 40 WK", "value": "6/15 (40%), 9/16 (56%), -40%, not significant"},
      {"measurement": "tumour outcome (control, treated, inhibition, significance)", "setting": "Carcinogen: N-METHYL-N-NITROSOUREA, 684-9-35, Dose [Inhibitor]: 4 PPM IN DRINKING WATER DAILY FOR 10 MO STARTING SIMULTANEOUSLY WITH CARCINOGEN TREATMENT (STUDY DURATION: 10 MO), Route [Inhibitor]: ORAL, Species: RAT, Strain/Sex: WE/MALE, Target Tissue: Type of Lesion: FORESTOMACH: NEOPLASM, Dose [Carcinogen]: 20 MG/KG BW ONCE EVERY 4 WK FOR 40 WK", "value": "14/15 (93%), 16/16 (100%), -8%, not significant"},
      {"measurement": "tumour outcome (control, treated, inhibition, significance)", "setting": "Carcinogen: N-METHYL-N-NITROSOUREA, 684-9-35, Dose [Inhibitor]: 4 PPM IN DRINKING WATER DAILY FOR 10 MO STARTING SIMULTANEOUSLY WITH CARCINOGEN TREATMENT (STUDY DURATION: 10 MO), Route [Inhibitor]: ORAL, Species: RAT, Strain/Sex: WE/MALE, Target Tissue: Type of Lesion: MAMMARY GLAND: NEOPLASM, Dose [Carcinogen]: 20 MG/KG BW ONCE EVERY 4 WK FOR 40 WK", "value": "3/15 (20%), 4/16 (25%), -25%, not significant"},
      {"measurement": "tumour outcome (control, treated, inhibition, significance)", "setting": "Carcinogen: N-METHYL-N-NITROSOUREA, 684-9-35, Dose [Inhibitor]: 4 PPM IN DRINKING WATER DAILY FOR 10 MO STARTING SIMULTANEOUSLY WITH CARCINOGEN TREATMENT (STUDY DURATION: 10 MO), Route [Inhibitor]: ORAL, Species: RAT, Strain/Sex: WE/MALE, Target Tissue: Type of Lesion: PERIPHERAL NERVES: NEOPLASM, Dose [Carcinogen]: 20 MG/KG BW ONCE EVERY 4 WK FOR 40 WK", "value": "3/15 (20%), 8/16 (50%), -150%, not significant"},
      {"measurement": "tumour outcome (control, treated, inhibition, significance)", "setting": "Carcinogen: N-METHYL-N-NITROSOUREA, 684-93-5, Dose [Inhibitor]: 1 MG IN DIET DAILY STARTING AT AGE 5 WK 2 WK PRIOR TO FIRST CARCINOGEN TREATMENT AND CONTINUING FOR DURATION OF STUDY (S, Route [Inhibitor]: ORAL, Species: HAMSTER, Strain/Sex: SYRIAN/MALE, Target Tissue: Type of Lesion: TRACHEA: CARCINOMA, Dose [Carcinogen]: 0.5% SOLUTION (PH 5) 1/WK FOR 12 WK", "value": "9/34 (26%), 8/33 (24%), 8%, not significant"},
      {"measurement": "tumour outcome (control, treated, inhibition, significance)", "setting": "Carcinogen: N-METHYL-N-NITROSOUREA, 684-93-5, Dose [Inhibitor]: 1 MG IN DIET DAILY STARTING AT AGE 5 WK 2 WK PRIOR TO FIRST CARCINOGEN TREATMENT AND CONTINUING FOR DURATION OF STUDY (S, Route [Inhibitor]: ORAL, Species: HAMSTER, Strain/Sex: SYRIAN/MALE, Target Tissue: Type of Lesion: TRACHEA: NEOPLASM, Dose [Carcinogen]: 0.5% SOLUTION (PH 5) 1/WK FOR 12 WK", "value": "11/34 (32%), 9/33 (27%), 16%, not significant"},
      {"measurement": "tumour outcome (control, treated, inhibition, significance)", "setting": "Carcinogen: N-METHYL-N-NITROSOUREA, 684-93-5, Dose [Inhibitor]: 1 MG/KG IN DIET DAILY STARTING 7 D AFTER CARCINOGEN TREATMENT AND CONTINUING FORDURATION OF STUDY (STUDY DURATION: 120 D, Route [Inhibitor]: ORAL, Species: RAT, Strain/Sex: SPRAGUE-DAWLEY/FEMALE, Target Tissue: Type of Lesion: MAMMARY GLAND: ADENOCARCINOMA, Dose [Carcinogen]: 35 MG/KG BW IN 0.9% SALINE ONCE AT 50 D OF AGE", "value": "68%, 68%, 0%, not calculated"},
      {"measurement": "tumour outcome (control, treated, inhibition, significance)", "setting": "Carcinogen: N-METHYL-N-NITROSOUREA, 684-93-5, Dose [Inhibitor]: 5 MG IN DIET DAILY STARTING AT AGE 5 WK 2 WK PRIOR TO FIRST CARCINOGEN TREATMENT AND CONTINUING FOR DURATION OF STUDY (S, Route [Inhibitor]: ORAL, Species: HAMSTER, Strain/Sex: SYRIAN/MALE, Target Tissue: Type of Lesion: TRACHEA: CARCINOMA, Dose [Carcinogen]: 0.5% SOLUTION (PH 5) 1/WK FOR 12 WK", "value": "9/34 (26%), 10/31 (32%), -23%, not significant"}
    ]}
  ]
}
